Test results taken from patent US20150225454A1, “TETRABRANCHED PEPTIDES AND ANALOGUES AS A NEW CLASS OF ANTIMICROBIALS AND THEIR PREPARATION THEREOF” (priority 2012, published 2015).
Where a SMILES comes first, the peptide text is derived from it. Bridges are numbered along the chain shown (N, C = ends). Roman numbers before positions name the chains, in order.

What was measured:
C. albicans [1] = assay: microbe, parasite or virus in culture; assay type: cell-based
Description: The yeast strains were cultivated and suspended in Sabouraud's Dextrose (SD) broth diluted at one sixth at a starting OD600=˜0.08 in a flat-bottomed microtitre plate. A serial dilution of peptide in the same broth was mixed with the inoculum to give a final peptide concentration of 0.4-22 μM. The antifungal activity was assessed by monitoring the OD600 in cycles of 30 minutes and an orbital shaking at 100 rpm using an Infinite M200 microplate reader (Tecan Group Ltd., Switzerland) for 24/48 h at 37° C. Cultures without peptides were used as positive controls and broth alone or with 22 μM peptide served as negative controls. The minimum concentration required for complete inhibition was assessed by both visible observations as well as by measuring the OD600 and taken as the MIC. Each experiment was repeated in triplicates.

[2] = Acute in vivo toxicity in mice; parameters: species or system C57BL6 mice
Description: Acute toxicity of B4010 was assessed with C57BL6 (6-8 weeks old) wild type mice. Two healthy wild type mice were chosen for each route of administration. B4010 was delivered through intra-peritoneal (200 mg/kg) or (100 mg/kg) intra-venous routes. Two animals were used for each administration and monitored through 24/48 h to determine mortality, or signs of toxicity.

[3] = SDS-PAGE pull down assay with cell wall polysaccharides; assay type: binding; conditions: chitin or β-D-glucan, 5.5-22 μM, 2 h, 37° C.
Description: In another study to probe the mechanism of action, the affinity of B4010 for insoluble polysaccharides such as chitin and β-D-glucan, the major component of fungal cell walls was examined. B4010 (5.5-22 μM) was incubated with chitin (from shrimp shells) or β-D-glucan for 2 h at 37° C. The mixture was centrifuged at 10,000 g and the supernatant was analyzed by SDS-PAGE (4-20%). A control experiment without chitin/β-D-glucan was also performed to quantify peptide binding to the carbohydrate polymers.

C. albicans [4] = assay: Measurement of extracellular cations (ICP-OES); assay type: cell-based
Description: Overnight cultured late logarithmic phase C. albicans was harvested by centrifugation, washed 5 times with 10 mM HEPES (pH 7.0), resuspended in the same buffer and adjusted to an OD600=0.4. To 5 ml of this suspension, B4010 (final concentration 5.5 μM) was added and incubated at 37° C. for 2 h. The mixture was centrifuged at 3,000 g and the presence of K^+, Ca^2+ and Mg^2+ in the supernatant was estimated by Perkin Elmer Dual-view Optima 5300 DV inductively coupled plasma-optical emission spectrometry (ICP-OCS Massachusetts, USA) available at CMMAC facilities (Department of Chemistry, National University of Singapore).

C. albicans [5] = assay: ATP bioluminescence assay (extracellular ATP release); assay type: cell-based
Description: The extracellular ATP levels upon challenging C. albicans with B4010 were determined as reported before (Koshlukova et al., 1999). Cells (OD600≈0.6) were incubated […] with or without various additives for 2 hours at 37° C. with orbital shaking. […] Each tube was then centrifuged at 5000 g for 5 mins. Then 225 μL of boiling TE buffer (50 mM Tris, 2 mM EDTA, pH 7.8) was added to the 25 μl of the supernatant and mixed well. This mixture was boiled again for another 2 minutes and stored at 4° C. until further examination. 100 μL of a luciferin-luciferase ATP assay mixture was added to 100 μL of the supernatant and luminescence was monitored using the Infinite M200 microplate reader (Tecan Group Ltd., Switzerland). […] For dose-dependent studies, the concentration of the peptide was varied from 0.4-44 μM. The extracellular ATP concentration was determined from calibration curve obtained by ATP assay kit (Molecular Probes, OR, USA) as per the manufacturer's instruction.

[6] = Calcein release from mammalian model membrane SUVs; conditions: PC:Cholesterol, compared with fungal model membrane
Description: Small unilamellar vesicles (SUVs) were prepared using PC/PE/PI or PS lipids (5:2.5:2.5) containing 15 wt % ergosterol or PC/Cholesterol (10:1) (Makovitzki et al., 2006). For the preparation of PC/PE/PI or PS/Erg SUV, the lipids were dissolved in chloroform/methanol (2:1, v/v) in a glass tube. Ergosterol was dissolved in same solvent and added to lipid mixture to make final ergosterol content of 15 wt %. The Lipid-ergosterol mixture was dried using nitrogen gas to form lipid layer. The film was hydrated in a buffer containing 20 mM PBS (pH 7), vortexed and sonicated. Each cycle of sonication (5 sec, 40° C.) is followed by freezing in liquid nitrogen and thawing on a water bath kept at 37° C. The procedure was repeated 5-6 times until an optically clear dispersion appeared. The SUV was divided into two parts. To the first part 50 mM calcein was added and incubated for 1 h. […] Changes in the fluorescence signal after addition of peptide or Triton X-100 was measured on a PTI spectrofluorometer, using an excitation wavelength of 480 nm and emission wavelength of 512 nm. The Percentage calcein released at each time point was calculated using the equation: […]
Where A0 is the observed fluorescence intensity upon addition of peptides, Amin is the average intensity at the baseline (before peptide addition), Amax is the average intensity at the saturation phase after adding 1% Triton X-100. […]

C. albicans [7] = assay: Cell viability assay under diS-C3-5 assay conditions; assay type: cell-based; conditions: concentration exceeding 4×MIC
Description: To verify if the dissipation of membrane potential is linked to candidacidal activity, a cell viability assay was performed under identical conditions.

For `CC(C)[C@H](NC(=O)[C@H](CCCCN)NC(=O)[C@H](CCCNC(=N)N)NC(=O)CNC(=O)[C@@H](N)CCCNC(=N)N)C(=O)N[C@H](C(=O)N[C@@H](CCCNC(=N)N)C(=O)N[C@@H](CCCNC(=N)N)C(=O)NCCCC[C@H](NC(=O)[C@H](CCCNC(=N)N)NC(=O)[C@H](CCCNC(=N)N)NC(=O)[C@@H](NC(=O)[C@@H](NC(=O)[C@H](CCCCN)NC(=O)[C@H](CCCNC(=N)N)NC(=O)CNC(=O)[C@@H](N)CCCNC(=N)N)C(C)C)C(C)C)C(=O)NCCCC[C@H](NC(=O)[C@H](CCCCNC(=O)[C@H](CCCNC(=N)N)NC(=O)[C@H](CCCNC(=N)N)NC(=O)[C@@H](NC(=O)[C@@H](NC(=O)[C@H](CCCCN)NC(=O)[C@H](CCCNC(=N)N)NC(=O)CNC(=O)[C@@H](N)CCCNC(=N)N)C(C)C)C(C)C)NC(=O)[C@H](CCCNC(=N)N)NC(=O)[C@H](CCCNC(=N)N)NC(=O)[C@@H](NC(=O)[C@@H](NC(=O)[C@H](CCCCN)NC(=O)[C@H](CCCNC(=N)N)NC(=O)CNC(=O)[C@@H](N)CCCNC(=N)N)C(C)C)C(C)C)C(=O)N[C@@H](CCCCN)C(=O)O)C(C)C` [Peptide B4010] (I: H-RGRKVVRRKKK-OH / II: H-RGRKVVRRK / III: H-RGRKVVRR / IV: H-RGRKVVRR; amide I:9-IV:C, I:10-II:C, II:9-III:C; N-terminus and C-terminus assumed), the “MIC for two C. albicans clinical isolates” value (C. albicans [1]) was 0.34 µM, the “MIC values, C. albicans” value (C. albicans [1]) was 0.37 to 1.4 µM and the “decrease in MIC compared to the co-valent dimer” value (C. albicans [1]) was 4-10 fold. For the same compound, the “activity superior to natamycin” value (C. albicans [1]; ATCC reference and clinical isolates) was 2-4 times, the “mortality, morbidity or toxicity” value ([2]; IP 200 mg/kg) was “no sign of mortality, morbidity or toxicity” and the “mortality, morbidity or toxicity” value ([2]; IV 100 mg/kg) was “no sign of mortality, morbidity or toxicity”. The “affinity for cell wall polysaccharides (coprecipitation)” value [3] was “no affinity”, the “increase in K+- and Ca2+-ions” value (C. albicans [4]) was 2 fold and the “calcium concentration in supernatant” value (C. albicans [4]; 5.5 μM, 2 h) was 5.8 ± 1.3 µM. The “levels of Na+ and Mg2+ ions” value (C. albicans [4]; 5.5 μM, 2 h) was “no significant changes”, the “potassium concentration in supernatant” value (C. albicans [4]; 5.5 μM, 2 h) was 104 ± 4.2 µM and the “time to maximum ATP efflux” value (C. albicans [5]; 4×MIC) was ≤ 30 min. The “concentration of maximum ATP release” value (C. albicans [5]; dose-dependent study) was “around 4 ×MIC”, the calcein leakage [6] was “less calcein leakage” and the cell viability (C. albicans [7]) was “complete loss of viability”.
